Test results as given in paper PMC11587516 (ACS Chemical Neuroscience, 2024).
Where two headings read alike, the source gives them in different places.

How the values were obtained:
hBGT1 E52A+Q299L = biological target: T1, hBGT1 E52A+Q299L (Homo sapiens, UniProt P48065, E52A/Q299L); assay: [3H]GABA uptake assay, hBGT1 double mutant E52A+Q299L in tsA201 cells; type: cell-based
T1 construct: host or cells: tsA201 cells (transformed HEK293), transient expression
T1 sequence (P48065 1-614 E52A/Q299L): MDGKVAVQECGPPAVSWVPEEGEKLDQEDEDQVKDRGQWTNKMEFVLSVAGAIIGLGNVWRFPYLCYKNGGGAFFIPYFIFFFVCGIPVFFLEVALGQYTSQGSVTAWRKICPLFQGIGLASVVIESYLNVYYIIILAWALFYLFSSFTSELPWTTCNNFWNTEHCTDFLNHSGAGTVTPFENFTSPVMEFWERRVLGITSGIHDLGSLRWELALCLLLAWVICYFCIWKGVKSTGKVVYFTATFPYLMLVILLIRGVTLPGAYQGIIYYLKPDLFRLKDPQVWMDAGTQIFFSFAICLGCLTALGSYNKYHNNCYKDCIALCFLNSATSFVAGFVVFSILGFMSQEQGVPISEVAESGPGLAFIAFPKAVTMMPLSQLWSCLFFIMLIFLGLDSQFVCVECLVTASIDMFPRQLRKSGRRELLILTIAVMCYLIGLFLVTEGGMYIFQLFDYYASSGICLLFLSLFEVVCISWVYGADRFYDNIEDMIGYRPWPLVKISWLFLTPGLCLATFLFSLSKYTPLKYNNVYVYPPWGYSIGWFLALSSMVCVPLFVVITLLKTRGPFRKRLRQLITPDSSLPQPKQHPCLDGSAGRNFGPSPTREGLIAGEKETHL
Protocol: To validate the molecular modeling, particularly the crucial interactions with the Glu52 and Gln299 residues, the activity of compound 9 was tested on the following hBGT1 mutants: E52A, E52Y, Q299L, and the double mutant E52A+Q299L (Figure 5 and Table 1).[14]
The CHO cells were placed in 96-well plates (approximately 50,000 cells/well) for about 24 h before the experiment. […] After incubation, cells were washed 3 times with 100 μL/well ice-cold assay buffer, 150 μL/well MicroScint20 (PerkinElmer) was subsequently added before the plate was shaken for at least 1 h. The radioactivity of each well of the plate was measured on a TopCount NXT scintillation counter. […] Data presented are the pooled data of at least three independent experiments with three technical replicates if not stated otherwise in figure legends. Concentration–response curves were fitted by nonlinear regression to the sigmoidal concentration–response model with GraphPad Prism v 9.0.
The tsA201 cell line (a transformed HEK293 cell line) has been described previously and was cultured accordingly.[20] The tsA201 cells used for transient expression of hBGT1 mutants were transfected with DNA constructs (8 μg per 10 cm plate) using 40 μL of PolyFect transfection reagent according to the manufacturer’s protocol (Qiagen). […]

GABAA receptors = assay: GABAA receptor [3H]-muscimol radioligand binding assay, rat cortical membranes; conditions: rat cortex
Protocol: A 10 mM stock solution of the tested compound was prepared in DMSO. Serial dilutions of the compound were prepared in 96-well microplates in assay buffers using automated pipetting system epMotion 5070 (Eppendorf). Each compound was tested in 8 concentrations from 10^–3 to 10^–10 M (final concentration). Radioligand binding was performed using tissue rat cortex according to the previous procedure.[22] All assays were carried out in duplicates. 50 μL of working solution of the tested compounds, 50 μL of [^3H]-muscimol (final concentration 2.0 nM), and 150 μL of tissue suspension prepared in assay buffer (50 mM Tris-HCl, pH 7.4) were transferred to polypropylene 96-well microplate using 96-well pipetting station Rainin Liquidator (Mettler-Toledo). […] The microplate was covered with sealing tape, mixed, and incubated for 15 min at 4 °C. The reaction was terminated by rapid filtration through GF/B filter mate. Ten rapid washes with 200 μL of 50 mM Tris buffer (4 °C, pH 7.4) were performed using 96-well FilterMate harvester (PerkinElmer). The filter mates were dried at 37 °C in forced air fan incubator and then solid scintillator MeltiLex was melted on filter mates at 90 °C for 4 min. The radioactivity on the filter was measured in MicroBeta TriLux 1450 scintillation counter (PerkinElmer). […]

[1] = system: normal human astrocytes (NHA); assay: Phase-contrast microscopy of normal human astrocytes in culture medium; type: cell-based; conditions: 500 μM in culture medium; 72 h
Protocol: Taking into account the presence of BGT1 and GAT3 transporters in astrocytes, we studied the effect of compound 9 on astrocyte viability, proliferation, and homeostasis. Normal human astrocytes (NHA) were treated with 1–100 μM compound 9 in a culture medium. The WST-1 assay was used to determine the number of metabolically active cells after 24 and 48 h of incubation. […] In the next step, a higher concentration (500 μM) of the compound and a longer incubation time (72 h) were applied, and the cells were examined by phase-contrast microscopy. […] Considering the results shown in Figure 6, compound 9 was not cytotoxic toward human astrocytes under in vitro culture conditions.
Gibco Human Astrocytes (Thermo Fisher Scientific) were maintained in a humidified 5% CO2 incubator at 37 °C. The cells were cultured in Gibco Astrocyte Medium (DMEM with GlutaMAX, N-2 Supplement, and OneShot Fetal Bovine Serum) supplemented with penicillin G (100 U/mL), neomycin (10 μg/mL), and amphotericin B (0.25 μg/mL).

[2] = system: normal human astrocytes (NHA); assay: Confocal imaging of astrocyte morphology after incubation in PBS (non-GABA conditions); type: cell-based; conditions: 500 μM in PBS, non-GABA environment; 72 h
Protocol: To this end, we tested whether blocking the transport of GABA under experimental non-GABA extracellular conditions may impair the homeostasis of these cells. […] Afterward, the cells were stained to visualize actin filaments using confocal microscopy. […] Nevertheless, further kinetic studies are necessary to verify this hypothesis.
NHA was grown on a coverslip in a 35 mm culture dish. After treatment, the cells were fixed (4% paraformaldehyde) and permeabilized (0.1% Triton X-100). Then, the samples were stained with Phalloidin-Atto 565 (Sigma-Aldrich, Inc.) according to the manufacturer’s protocol. Laser confocal microscope Nikon Eclipse Ti-E A1R-Si and Nikon NIS Elements AR software were used for cell imaging.

[3] = system: SH-SY5Y neuroblastoma cells; conditions: 1 mM MPP+, 24 h
Protocol: The model used mimics certain aspects of neurodegenerative diseases, where GABAergic dysfunction and neuronal death are prominent features. […] The neuroprotection studies were performed to determine the ability of compound 9 to prevent MPP^+ (1-methyl-4-phenylpyridinium) toxicity at a concentration of 1 mM, which was coincubated with compound 9 for 24 h. MPP^+ is a well-established neurotoxin that selectively damages neurons, making it a commonly used agent to model aspects of neurodegenerative conditions in vitro. It induces oxidative stress and mitochondrial dysfunction, leading to cell death. Cell viability was detected by a standard MTS assay.
Neuroprotection studies were performed according to the procedure described previously.[27] In brief, SH-SY5Y CRL-2266 (American Type Culture Collection, Manassas, VG) were seeded in microplate at a concentration of 2.5 × 10^4 cells/well in 100 μL of culture medium and cultured for 24 h at 37 °C and 5% CO2. […] Next, MPP^+ was added at a final concentration of 1 mM and the cells were placed in the incubator. After 24 h of the compound coincubation with MPP^+, the CellTiter 96 AQueous Nonradioactive Cell Proliferation Assay (MTS) was performed. The test was purchased from Promega (Madison, WI). The absorbance was measured using a microplate reader EnSpire (PerkinElmer, Waltham, MA) at 490 nm. All results were shown as mean ± SD. The statistical significances were calculated by GraphPad Prism 6.0 software.

For `NC12CC(C(=O)O)(C1)C2` [Compound 9], the IC50 (hBGT1 E52A+Q299L) was > 1000 µM, the “activity at mutant compared with wild type hBGT1” value (hBGT1 E52A+Q299L; E52A+Q299L vs wt) was “no activity” and the “displacement of [3H]-muscimol” value (GABAA receptors; 100 μM) was 4%. The “Ki ± SEM” value (GABAA receptors; [3H]-muscimol 2.0 nM) was “no affinity ^a”, the “astrocyte morphology and confluency” value [1] was “no changes in astrocyte morphology and confluency” and the “astrocyte morphology (actin staining)” value [2] was “cell shrinkage and a loss of cell-to-cell contact”. For the same compound, the “cell viability compared to MPP+ alone” value ([3]; 10 μM) was “increased cell viability” and the “cell viability compared to MPP+ alone” value ([3]; 50 μM) was “significantly increased cell viability”.
